Drawing on patent publication US9394297B2, “Amides as pim inhibitors” (AMGEN INC., priority 2012, dated 2016), this text covers IC50 for 25 compounds.

Molecules are shown by their SMILES. Counter-ions that a name gives are not always drawn. Like-named read-outs stand apart in the source and are kept apart here.

In general, IC50 refers to the concentration that inhibits the measured activity by half.

One assay concerns the target Pim-2 (Homo sapiens (Human), UniProt Q9P1W9). The assay can be described thus: Pim-Mn enzyme assay (HTRF, 384-well), Pim-2. Type of assay: biochemical. The following applies: read-out: Pim-2-Mn IC50 IP. In general terms: In TR-FRET formats the signal depends on donor and acceptor labels being close together.
A further assay relates to KMS-12-BM cell lines. Put plainly: KMS12 #2 flow cytometry assay (phospho-BAD Ser112). The format is cell-based. The following applies: Homo sapiens, 110 min; KMS-12-BM cells, pBAD Ser112 by flow cytometry, 110 min with compound; read-out: KMS-12-Flow IC50 IP. Background: Flow cytometry measures light scatter and fluorescence of single cells or particles in a stream.
The next assay addresses Pim-1 (Homo sapiens (Human), UniProt P11309). Put plainly: Pim-Mn enzyme assay (HTRF, 384-well), Pim-1. The format is biochemical. The following applies: read-out: Pim-1-Mn IC50 IP.
[1] abbreviates: Pim-2 enzyme 0.5 pM, ATP 1.5 μM, BAD (S112) 0.5 μM, HTRF, 22-point curve.
Where [2] appears, read: Pim-1 enzyme 5 pM, ATP 1.5 μM, BAD (S112) 0.5 μM, HTRF, 22-point curve.

Pim-2, sequence (Q9P1W9 whole entry): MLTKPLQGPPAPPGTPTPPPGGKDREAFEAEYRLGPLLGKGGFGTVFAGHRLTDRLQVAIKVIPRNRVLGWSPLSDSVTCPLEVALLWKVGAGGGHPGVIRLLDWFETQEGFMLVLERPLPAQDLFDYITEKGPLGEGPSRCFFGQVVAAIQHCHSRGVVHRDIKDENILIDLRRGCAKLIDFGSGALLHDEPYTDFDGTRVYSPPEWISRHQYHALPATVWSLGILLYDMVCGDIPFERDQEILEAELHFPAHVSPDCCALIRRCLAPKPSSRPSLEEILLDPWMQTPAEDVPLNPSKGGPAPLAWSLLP
Pim-1, sequence (P11309 whole entry): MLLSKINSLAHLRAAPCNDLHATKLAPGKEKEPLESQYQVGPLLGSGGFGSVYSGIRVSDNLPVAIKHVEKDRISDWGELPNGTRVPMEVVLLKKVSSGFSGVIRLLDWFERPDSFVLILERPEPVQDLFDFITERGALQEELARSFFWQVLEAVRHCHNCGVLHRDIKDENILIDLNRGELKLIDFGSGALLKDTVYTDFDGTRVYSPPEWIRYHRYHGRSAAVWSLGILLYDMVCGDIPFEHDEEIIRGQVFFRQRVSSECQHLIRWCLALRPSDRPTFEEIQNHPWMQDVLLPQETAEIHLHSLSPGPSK

For `Cc1nc2cccc(-c3cc4c([nH]3)[C@H](CO)NC4=O)c2nc1NC1CC1` [Example 367, (R)-2-(3-(cyclopropylamino)-2-methylquinoxalin-5-yl)-6-(hydroxymethyl)-5,6-dihydropyrrolo[3,4-b]pyrrol-4(1H)-one], the IC50 at Pim-2 (setting [1]) is 3.68 nM; with KMS-12-BM cell lines, 429 nM; on Pim-1 (setting [2]) it was 3.81 nM.

`Cc1nc2ccnc(-c3cc4c([nH]3)CCNC4=O)c2nc1NC(C)(C)C` [Example 368, 2-(3-(tert-butylamino)-2-methylpyrido[3,4-b]pyrazin-5-yl)-6,7-dihydro-1H-pyrrolo[3,2-c]pyridin-4(5H)-one]: the values for the IC50 at Pim-2 (setting [1]), in the assay on KMS-12-BM cell lines and at Pim-1 (setting [2]) were 33.7 nM, 13300 nM and 30.8 nM, respectively.

Turning to `Cc1nc2ccc(F)c(-c3cc4c([nH]3)CCNC4=O)c2nc1NC1(C)CC1` [Example 369, 2-(6-fluoro-2-methyl-3-((1-methylcyclopropyl)amino)quinoxalin-5-yl)-6,7-dihydro-1H-pyrrolo[3,2-c]pyridin-4(5H)-one 2,2,2-trifluoroacetate], the IC50 stood at 0.162 nM at Pim-2 (setting [1]), 11.5 nM in the assay with KMS-12-BM cell lines and 0.184 nM at Pim-1 (setting [2]).

Regarding `Cc1nc2ccc(F)c(-c3cc4c([nH]3)CCNC4=O)c2nc1NC(C)(C)CO` [Example 370, 2-(6-fluoro-3-((1-hydroxy-2-methylpropan-2-yl)amino)-2-methylquinoxalin-5-yl)-6,7-dihydro-1H-pyrrolo[3,2-c]pyridin-4(5H)-one], the IC50 at Pim-2 (setting [1]) stood at 0.272 nM; with KMS-12-BM cell lines, 143 nM; on Pim-1 (setting [2]), 0.992 nM.

With `Cc1nc2ccc(F)c(-c3cc4c(=O)[nH]ccc4[nH]3)c2nc1NC(C)(C)C` [Example 371, 2-(3-(tert-butylamino)-6-fluoro-2-methylquinoxalin-5-yl)-1H-pyrrolo[3,2-c]pyridin-4(5H)-one 2,2,2-trifluoroacetate salt], the half-inhibitory concentration (IC50) on Pim-2 was 0.0667 nM; in the assay on KMS-12-BM cell lines it was 148 nM; at Pim-1, 0.246 nM.

`Cc1nc2ccc(F)c(-c3cc4c([nH]3)CCNC4=O)c2nc1NC(C)C` [Example 373, 2-(6-fluoro-3-(isopropylamino)-2-methylquinoxalin-5-yl)-6,7-dihydro-1H-pyrrolo[3,2-c]pyridin-4(5H)-one 2,2,2-trifluoroacetate]: the IC50 at Pim-2 (setting [1]) is 1.63 nM; in the assay with KMS-12-BM cell lines, 94.3 nM; on Pim-1 (setting [2]) it was 1.8 nM.

In the case of `CC(C)(C)Nc1ncc2cccc(-c3cc4c([nH]3)CCNC4=O)c2n1` [Example 374, 2-(2-(tert-butylamino)quinazolin-8-yl)-6,7-dihydro-1H-pyrrolo[3,2-c]pyridin-4(5H)-one], the IC50 at Pim-2 (setting [1]) came to 3.62 nM; in the assay with KMS-12-BM cell lines, 769 nM; at Pim-1 (setting [2]) it was 2.54 nM.

Consider `CCC(C)(C)Nc1nc2c(-c3cc4c([nH]3)CCNC4=O)c(F)ccc2nc1C` [Example 375, 2-(6-fluoro-2-methyl-3-(tert-pentylamino)quinoxalin-5-yl)-6,7-dihydro-1H-pyrrolo[3,2-c]pyridin-4(5H)-one], for which the IC50 at Pim-2 (setting [1]) was found to be 0.275 nM; in the assay with KMS-12-BM cell lines, 119 nM; on Pim-1 (setting [2]) it was 0.259 nM.

In the case of `Cc1nc2ccc(F)c(-c3cc4c([nH]3)CCNC4=O)c2nc1NC1(C)CCC1` [Example 376, 2-(6-fluoro-2-methyl-3-((1-methylcyclobutyl)amino)quinoxalin-5-yl)-6,7-dihydro-1H-pyrrolo[3,2-c]pyridin-4(5H)-one], the IC50 amounted to 0.136 nM on Pim-2 (setting [1]), 37.6 nM in the assay on KMS-12-BM cell lines and 0.191 nM on Pim-1 (setting [2]).

Regarding `CN(c1ncc2cccc(-c3cc4c([nH]3)CCNC4=O)c2n1)C(C)(C)C` [Example 377, 2-(2-(tert-butyl(methyl)amino)quinazolin-8-yl)-6,7-dihydro-1H-pyrrolo[3,2-c]pyridin-4(5H)-one], the IC50 at Pim-2 (setting [1]) stood at 3.32 nM; in the assay with KMS-12-BM cell lines, 1630 nM; at Pim-1 (setting [2]), 2.43 nM.

As to `Cc1nc2ccc(F)c(-c3cc4c([nH]3)C3(CC3)NC4=O)c2nc1NC1(C)CC1` [Example 378, 2′-(6-fluoro-2-methyl-3-((1-methylcyclopropyl)amino)quinoxalin-5-yl)-1′H-spiro[cyclopropane-1,6′-pyrrolo[3,4-b]pyrrol]-4′(5′H)-one], the half-maximal inhibitory concentration (IC50) at Pim-2 came to 0.0354 nM; in the assay with KMS-12-BM cell lines, 16.1 nM; at Pim-1 it was 0.0295 nM.

For the compound `Cc1nc2ccc(F)c(-c3cc4c([nH]3)[C@@H](C)NC4=O)c2nc1NC1(C)CC1` [Example 379, (R)-2-(6-fluoro-2-methyl-3-((1-methylcyclopropyl)amino)quinoxalin-5-yl)-6-methyl-5,6-dihydropyrrolo[3,4-b]pyrrol-4(1H)-one], the IC50 was 0.0484 nM on Pim-2 (setting [1]), 11.3 nM in the assay with KMS-12-BM cell lines and 0.0376 nM at Pim-1 (setting [2]).

For the compound `Cc1nc2ccc(F)c(-c3cc4c([nH]3)[C@H](C)NC4=O)c2nc1NC1(C)CC1` [Example 380, (S)-2-(6-fluoro-2-methyl-3-((1-methylcyclopropyl)amino)quinoxalin-5-yl)-6-methyl-5,6-dihydropyrrolo[3,4-b]pyrrol-4(1H)-one], the IC50 at Pim-2 (setting [1]) was determined as 0.385 nM; in the assay with KMS-12-BM cell lines, 34.7 nM; on Pim-1 (setting [2]) it was 0.249 nM.

For the compound `Cc1nc2cccc(-c3cc4c([nH]3)C3(CC3)NC4=O)c2nc1NCC(F)(F)F` [Example 381, 2′-(2-methyl-3-((2,2,2-trifluoroethyl)amino)quinoxalin-5-yl)-1′H-spiro[cyclopropane-1,6′-pyrrolo[3,4-b]pyrrol]-4′(5′H)-one], the IC50 on Pim-2 came out at 1.36 nM; with KMS-12-BM cell lines it was 215 nM; on Pim-1, 1.6 nM.

On to `Cc1cccc(C)c1-c1cnc2cccc(-c3cc4c([nH]3)CCNC4=O)c2n1` [Example 401, 2-(3-(2,6-dimethylphenyl)-5-quinoxalinyl)-1,5,6,7-tetrahydro-4H-pyrrolo[3,2-c]pyridin-4-one], for which the IC50 was determined as 34.9 nM at Pim-2 (setting [1]), 18500 nM in the assay on KMS-12-BM cell lines and 19.5 nM on Pim-1 (setting [2]).

For `CC(C)Nc1nc2c(-c3cc4c([nH]3)CCNC4=O)cccc2c(=O)n1-c1ccccc1` [Example 402, 2-((1-methylethyl)amino)-8-(4-oxo-4,5,6,7-tetrahydro-1H-pyrrolo[3,2-c]pyridin-2-yl)-3-phenyl-4(3H)-quinazolinone], the values for the IC50 at Pim-2 (setting [1]), in the assay on KMS-12-BM cell lines and on Pim-1 (setting [2]) were 5.87 nM, 590 nM and 5.91 nM, respectively.

For the compound `CC(C)Nc1nc2c(-c3cc4c([nH]3)CCNC4=O)cccc2c(=O)n1-c1cccnc1` [Example 403, 2-((1-methylethyl)amino)-8-(4-oxo-4,5,6,7-tetrahydro-1H-pyrrolo[3,2-c]pyridin-2-yl)-3-(3-pyridinyl)-4(3H)-quinazolinone], the results for the IC50 at Pim-2 (setting [1]), in the assay with KMS-12-BM cell lines and on Pim-1 (setting [2]) were 16.4 nM, greater than 40000 nM and 11.5 nM, respectively.

For the compound `CC(C)(C)Nc1nc2c(-c3cc4c([nH]3)CCNC4=O)cccc2c(=O)n1-c1cccnc1` [Example 404, 2-(tert-butylamino)-8-(4-oxo-4,5,6,7-tetrahydro-1H-pyrrolo[3,2-c]pyridin-2-yl)-3-(3-pyridinyl)-4(3H)-quinazolinone], the IC50 on Pim-2 (setting [1]) came out at 2.6 nM; with KMS-12-BM cell lines, 659 nM; at Pim-1 (setting [2]) it was 1.5 nM.

Take `C[C@H]1NC(=O)c2cc(-c3cccc4c(=O)[nH]c(NC(C)(C)C)nc34)[nH]c21` [Example 408, 2-(tert-butylamino)-8-((6R)-6-methyl-4-oxo-1,4,5,6-tetrahydropyrrolo[3,4-b]pyrrol-2-yl)-4(3H)-quinazolinone]: the IC50 on Pim-2 (setting [1]) is 0.24 nM; in the assay on KMS-12-BM cell lines, 47 nM; on Pim-1 (setting [2]) it was 0.1 nM.

With `Cc1nc2cccc(-c3cc4c([nH]3)C3(CCOCC3)NC4=O)c2nc1NC(C)(C)C` [Example 409, 2′-(3-(tert-butylamino)-2-methyl-5-quinoxalinyl)-2,3,5,6-tetrahydro-1′H-spiro[pyran-4,6′-pyrrolo[3,4-b]pyrrol]-4′(5′H)-one], the IC50 on Pim-2 (setting [1]) was determined as 62.6 nM; in the assay on KMS-12-BM cell lines, 5760 nM; on Pim-1 (setting [2]) it was 31.7 nM.

`Cc1nc2cccc(-c3cc4c([nH]3)CCNC4=O)c2nc1-c1ccncc1Cl` [Example 411, 2-(3-(3-chloro-4-pyridinyl)-2-methyl-5-quinoxalinyl)-1,5,6,7-tetrahydro-4H-pyrrolo[3,2-c]pyridin-4-one]: the figures for the IC50 at Pim-2 (setting [1]), in the assay on KMS-12-BM cell lines and on Pim-1 (setting [2]) were 239 nM, greater than 40000 nM and 66.5 nM, respectively.

Regarding `CC(C)Nc1nc2c(-c3cc4c([nH]3)CCNC4=O)cccc2c(=O)n1-c1ccccn1` [Example 415, 2-((1-methylethyl)amino)-8-(4-oxo-4,5,6,7-tetrahydro-1H-pyrrolo[3,2-c]pyridin-2-yl)-3-(2-pyridinyl)-4(3H)-quinazolinone], the concentration for half-maximal inhibition (IC50) on Pim-2 (setting [1]) worked out at 29.4 nM; with KMS-12-BM cell lines, 5860 nM; at Pim-1 (setting [2]) it was 10.9 nM.

Regarding `Cc1nc2cccc(-c3cc4c(=O)[nH]nc(C)c4[nH]3)c2nc1NC(C)(C)C` [Example 416, 2-(3-(tert-butylamino)-2-methylquinoxalin-5-yl)-7-methyl-1H-pyrrolo[2,3-d]pyridazin-4(5H)-one], the IC50 on Pim-2 came out at 15.8 nM; with KMS-12-BM cell lines, 2950 nM; on Pim-1, 7.63 nM.

Consider `Cc1nc2ccc(F)c(-c3cc(C(N)=O)c(C)[nH]3)c2nc1NC1(C)CC1` [Example 417, 5-(6-fluoro-2-methyl-3-((1-methylcyclopropyl)amino)quinoxalin-5-yl)-2-methyl-1H-pyrrole-3-carboxamide], for which the IC50 on Pim-2 (setting [1]) came to 3.56 nM; with KMS-12-BM cell lines, 279 nM; on Pim-1 (setting [2]), 2.91 nM.

On to `Cc1nc2cccc(-c3cc(C(N)=O)c(C4CC4)[nH]3)c2nc1NC(C)(C)C` [Example 418, 5-(3-(tert-butylamino)-2-methylquinoxalin-5-yl)-2-cyclopropyl-1H-pyrrole-3-carboxamide], for which the IC50 was 7.79 nM on Pim-2 (setting [1]), 3150 nM in the assay on KMS-12-BM cell lines and 3.52 nM on Pim-1 (setting [2]).
